The text below walks through data of patent US12209079B2 (GENERAL INCORPORATED ASSOCIATION PHARMA VALLEY PROJECT …, priority 2017, dated 2025).

The target of experiment [1] is T1, IDO in A431 cells (Homo sapiens, UniProt P14902).
T1 construct: endogenous in cells; host or cells: A431 cells, IFN-γ stimulated
Description: IDO cell-based assay, kynurenine production in IFN-γ stimulated A431 cells. As to conditions: A-431, 24 h; final concentration of the compound 10 μM; rate relative to culture without compound. The gist of the method: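 A431 cells were cultured 24 h, then preincubated 1 h with compound in medium containing 178 μM L-tryptophan, and stimulated with IFN-γ (diluted to 100 ng/mL before addition) for 24 h. Kynurenine was measured by p-dimethylbenzaldehyde absorbance at 460 nm, background-subtracted, and expressed as % production versus no-compound control.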

The target of experiment [2] is T2, TDO in A172 cells (Homo sapiens, UniProt P48775).
T2 construct: endogenous in cells; host or cells: A172 cells
Description: TDO cell-based assay, kynurenine production in A172 cells. Particulars: A 172; final concentration of the compound 10 μM; rate relative to culture without compound. The gist of the method:
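A172 cells were preincubated with compound for 1 h, then given L-tryptophan (final 524 μM) for 24 h at 37 °C. Kynurenine was read at 460 nm after p-dimethylbenzaldehyde/TCA reagent, background-subtracted, and expressed as % of no-compound production.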

Experiment [3] deals with rhIDO (recombinant human IDO) (Homo sapiens, UniProt P14902). Description: Enzyme assay using rhIDO (rate of kynurenine production). It is filed as biochemical. Particulars: 2 h; final concentration of the compound 10 μM; rate relative to reaction without compound; read-out: rhIDO-mediated kynurenine production. The gist of the method:
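rhIDO preincubated with compound 10 min at 37 °C in phosphate buffer with ascorbate, methylene blue and catalase; started with 2 mM tryptophan solution (stock) and run 120 min at 37 °C. Stopped with TCA and heated to convert N-formylkynurenine; kynurenine read at 490 nm after p-dimethylbenzaldehyde, background-subtracted, as % of no-compound control.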

T2 sequence (P48775 whole entry): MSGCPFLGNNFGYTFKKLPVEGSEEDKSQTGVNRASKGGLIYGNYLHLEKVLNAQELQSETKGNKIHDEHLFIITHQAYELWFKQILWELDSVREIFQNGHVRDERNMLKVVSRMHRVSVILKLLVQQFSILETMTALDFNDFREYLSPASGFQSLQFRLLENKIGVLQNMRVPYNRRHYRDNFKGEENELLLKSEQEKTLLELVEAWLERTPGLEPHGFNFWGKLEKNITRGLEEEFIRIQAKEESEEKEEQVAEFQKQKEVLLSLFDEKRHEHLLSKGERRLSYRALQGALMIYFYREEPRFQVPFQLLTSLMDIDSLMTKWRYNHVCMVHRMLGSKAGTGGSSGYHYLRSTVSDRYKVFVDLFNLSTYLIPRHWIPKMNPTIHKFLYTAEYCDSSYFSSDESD
Chain of rhIDO (recombinant human IDO) (P14902 whole entry): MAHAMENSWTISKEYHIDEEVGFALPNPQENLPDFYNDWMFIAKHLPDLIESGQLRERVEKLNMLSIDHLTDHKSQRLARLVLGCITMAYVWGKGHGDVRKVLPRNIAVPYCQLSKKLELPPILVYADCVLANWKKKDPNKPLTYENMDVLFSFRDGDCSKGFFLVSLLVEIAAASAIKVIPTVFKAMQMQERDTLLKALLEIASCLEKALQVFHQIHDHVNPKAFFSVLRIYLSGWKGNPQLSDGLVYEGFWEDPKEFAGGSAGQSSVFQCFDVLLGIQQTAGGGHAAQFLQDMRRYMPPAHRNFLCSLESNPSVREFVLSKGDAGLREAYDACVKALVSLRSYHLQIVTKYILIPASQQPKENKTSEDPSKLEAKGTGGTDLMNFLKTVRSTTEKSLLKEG
T1 sequence (P14902 whole entry): as above

In the case of `Cl.Cl.N=C(N)SCc1ccccc1CSC(=N)N` [Compound 1, 1,2-phenylenebis(methylene) dicarbamimidothioate dihydrochloride], the values for the remaining activity at 10 µM in experiment [1], in experiment [2] and in experiment [3] were 11%, -3% and 26%, respectively.
For `Br.Br.N=C(N)SCc1ccc(F)cc1CSC(=N)N` [Compound 2, (4-fluoro-1,2-phenylene)bis(methylene) dicarbamimidothioate dihydrobromide] the same measures were 7%, 7% and 11%.
In the case of `Br.Br.N=C(N)SCc1ccc(Cl)cc1CSC(=N)N` [Compound 7, (4-chloro-1,2-phenylene)bis(methylene) dicarbamimidothioate dihydrobromide], the remaining activity at 10 µM is 0% in experiment [1], -1% in experiment [2] and 10% in experiment [3].
On to `Br.Br.N=C(N)SCc1ccc(Br)cc1CSC(=N)N` [Compound 10, (4-bromo-1,2-phenylene)bis(methylene) dicarbamimidothioate dihydrobromide], for which the remaining activity at 10 µM in experiment [1] was -1%; in experiment [2] it was 2%; in experiment [3], 1%.
For the compound `Br.Br.N=C(N)SCc1cscc1CSC(=N)N` [Compound 15, thiophene-3,4-diylbis(methylene) dicarbamimidothioate dihydrobromide], the remaining activity at 10 µM in experiment [1] was 12%; in experiment [2], 7%; in experiment [3] it was 22%.
With `c1ccc(CSC2=NCN(CC3CCCCC3)CN2)c(CSC2=NCN(CC3CCCCC3)CN2)c1` [Compound 29, 1,2-bis(((5-(cyclohexylmethyl)-1,4,5,6-tetrahydro-1,3,5-triazin-2-yl)thio)methyl)benzene], the remaining activity at 10 µM in experiment [1] is 10%; in experiment [2], 0%; in experiment [3], 23%.
The corresponding values for `Br.Br.N=C(N)SCc1ccsc1CSC(=N)N` [Compound 31, thiophene-2,3-diylbis(methylene) dicarbamimidothioate dihydrobromide] are 13%, 20% and 11%.
For `Cl.Cl.c1ccc(CCN2CN=C(SCc3cscc3CSC3=NCN(CCc4ccccc4)CN3)NC2)cc1` [Compound 33, 3,4-Bis{[(5-phenethyl-1,4,5,6-tetrahydro-1,3,5-triazin-2-yl)thio]methyl}thiophene dihydrochloride] the same measures were 3%, 4% and 37%.
With `Clc1cc(CSC2=NCN(CCc3ccccc3)CN2)c(CSC2=NCN(CCc3ccccc3)CN2)cc1Cl` [Compound 37, 6,6′-(((4,5-Dichloro-1,2-phenylene)bis(methylene))bis(sulfanediyl))bis(3-phenethyl-1,2,3,4-tetrahydro-1,3,5-triazine)], the remaining activity at 10 µM was 1% in experiment [1], -9% in experiment [2] and below 9% in experiment [3].
The corresponding values for `N/C(=N\c1ccc(Br)cc1)SCc1ccc(Br)cc1CS/C(N)=N/c1ccc(Br)cc1` [Compound 49, (4-Bromo-1,2-phenylene)bis(methylene) (E,E)-bis(N′-(4-bromophenyl)carbamimidothioate)] are 4%, 8% and 1%.
The corresponding values for `Clc1cc(CSC2=NCN(CC3CCCCC3)CN2)c(CSC2=NCN(CC3CCCCC3)CN2)cc1Cl` [Compound 50, 6,6′-(((4,5-Dichloro-1,2-phenylene)bis(methylene))bis(sulfanediyl))bis(3-(cyclohexylmethyl)-1,2,3,4-tetrahydro-1,3,5-triazine)] are 4%, 4% and 9%.
As to `Brc1ccc(CSC2=NCN(CC3CCCCC3)CN2)c(CSC2=NCN(CC3CCCCC3)CN2)c1` [Compound 52, 6,6′-(((4-Bromo-1,2-phenylene)bis(methylene))bis(sulfanediyl))bis(3-(cyclohexylmethyl)-1,2,3,4-tetrahydro-1,3,5-triazine)], the remaining activity at 10 µM in experiment [1] was 1%; in experiment [2] it was 5%; in experiment [3], 14%.
Take `Br.N#Cc1ccc(CNC(=O)c2ccc(Br)cc2CSC(=N)N)cc1` [Compound 76, 5-Bromo-2-((4-cyanobenzyl)carbamoyl)benzyl carbamimidothioate hydrobromide]: the remaining activity at 10 µM in experiment [1] came to 82%; in experiment [2], 24%; in experiment [3], 78%.
For `Br.Br.N/C(=N\c1ccc(F)cc1F)SCc1ccccc1CS/C(N)=N/c1ccc(F)cc1F` [Compound 95, 1,2-Phenylenebis(methylene) (E,E)-bis(N-(2,4-difluorophenyl)carbamimidothioate)dihydrobromide], the remaining activity at 10 µM is 2% in experiment [1], -7% in experiment [2] and 3% in experiment [3].
Consider `Br.N#Cc1ccc(CNC(=O)c2cc(Br)ccc2CSC(=N)N)cc1` [Compound 103, 4-Bromo-2-((4-cyanobenzyl)carbamoyl)benzyl carbamimidothioate hydrobromide], for which the results for the remaining activity at 10 µM in experiment [1], in experiment [2] and in experiment [3] were 3%, 18% and 0%, respectively.
